How the values were obtained:
[1] = Rat pharmacokinetics, intravenous dosing; assay type: in vivo, Sprague-Dawley rats; conditions: for AUC(0-t) / Cmax / clearance / half-life: male, Sprague-Dawley, rat plasma, 1 mg/kg IV (0.5 mg/mL)
Method: Intravenous dosing: Compounds were formulated at 0.5 mg/mL in a solution comprising 5% polyethylene glycol 400 and 95% (12% (w/v) sulfobutyl-β-cyclodextrin in water) (v/v). Formulated compounds were sterile filtered through a 0.22 micron filter before dosing. Compounds were administered to male, 7-11-week-old Sprague-Dawley rats by jugular vein cannula infusion over 30 minutes at a dose of 1 mg/kg.
Sample collection: Blood collections of about 0.2 mL per time point were performed from jugular vein or other suitable site of each animal, into pre-chilled commercial EDTA-K2 tubes and placed on wet ice until centrifugation. Blood samples were processed for plasma by centrifugation at approximately 4° C., 3,200 g for 10 min. Plasma was collected and transferred into pre-labeled 96 well plate or polypropylene tubes, quick frozen over dry ice and kept at −60° C. or lower until LC-MS/MS analysis.
Data analysis: Plasma concentration versus time data was plotted in graph and analyzed by non-compartmental approaches using the Phoenix WinNonlin 6.3 software program. Related PK parameters were calculated according to dosing route, e.g., CL, Vdss and C0 for intravenous administration, Cmax, Tmax or % F for extravascular administration, and T1/2, AUC(0-t), AUC(0-inf), MRT(0-t), MRT(0-inf) for all routes.

human GLP-1R receptor = molecular target: T1, human GLP-1R receptor (Homo sapiens, UniProt P43220); test: GLP-1R low expression cell assay (cAMP TR-FRET, CHO-K1_hGLP-1Rlow_clone10); assay type: cell-based; conditions: CHO-K1_hGLP-1Rlow_clone10 cells
T1 construct: expressed in transfected cells
T1 sequence (P43220 24-463): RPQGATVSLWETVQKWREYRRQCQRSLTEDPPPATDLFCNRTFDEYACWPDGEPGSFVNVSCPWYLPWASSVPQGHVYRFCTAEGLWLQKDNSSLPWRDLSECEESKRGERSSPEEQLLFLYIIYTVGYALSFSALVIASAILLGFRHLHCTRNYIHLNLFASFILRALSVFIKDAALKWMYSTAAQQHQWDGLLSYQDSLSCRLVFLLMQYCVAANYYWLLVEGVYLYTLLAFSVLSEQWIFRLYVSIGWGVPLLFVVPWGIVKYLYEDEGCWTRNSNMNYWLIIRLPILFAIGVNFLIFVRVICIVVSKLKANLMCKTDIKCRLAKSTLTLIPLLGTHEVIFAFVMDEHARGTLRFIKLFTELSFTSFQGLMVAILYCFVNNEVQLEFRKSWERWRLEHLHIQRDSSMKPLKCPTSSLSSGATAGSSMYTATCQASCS
Method: Stable cell lines expressing high and low GLP-1R surface expression were generated in CHO-K1 cells transfected (Fugene 6) with a puromycin selectable DNA plasmid encoding human GLP-1R receptor (accession number: NM_002062.5) under control of an EF1A promoter. Transfected cells were seeded into 24-well plates (9,000 cells/well) containing complete medium and incubated in a humidified incubator at 37° C. with 5% carbon dioxide. After overnight incubation, medium was replaced with complete medium supplemented with puromycin (6 μg/mL) and refreshed every 2-3 days to select for stably transfected cells. Individual pools of selected cells were expanded prior to analysis for responsiveness to GLP-1 control peptide using a TR-FRET assay to detect cAMP (LANCE Ultra CAMP Assay, Perkin Elmer). Briefly, cells were collected in Versene solution, plated in 384-well plates (1,000 cells/well) and combined with serially diluted GLP-1R control peptide (10 nL) using an acoustic dispenser (ECHO). Plates were incubated for 30 minutes at 25° C. prior to the addition of EU-CAMP tracer (5 μL) and Ulight-anti-cAMP (5 μL) reagents to each well, followed by 15 minutes incubation at 25° C. TR-FRET signal was detected using an En Vision Multimode Plate Reader (excitation=320 nm; emission=615 and 655 nm). Dose-response curves were used to generate EC50 values as a measure of responsiveness to the GLP-1R control peptide. Selected cell lines were monitored for responsiveness over multiple passages to ensure stability. […] Briefly, GLP-1R expression was analyzed by flow cytometry using a fluorescein-labeled Exendin-4 peptide fluorescent probe (FLEX). Cells were harvested in Versene solution and washed 3-times with PBS+0.5% BSA before incubation with FLEX reagent (10 μM) for 2 hours at room temperature. After incubation, cells were washed 3-times in PBS+0.5% BSA before final resuspension in PBS prior to analysis by flow cytometry to measure FLEX mean fluorescence intensity (MFI) as a measure of GLP-1R expression on the cell surface.
For compound testing in the CHO-K1_hGLP-1Rlow_clone10 cell line, cells were seeded in 384-well plates (1,000 cells/well). Test compounds were serially diluted in DMSO (10-point, 3-fold dilution), added to wells using an ECHO dispenser (10 nL/well) and plates were centrifuged for 1 min and agitated for 2 min at room temperature prior to 30-minute incubation at 25° C. After incubation, Eu-CAMP (5 μL) and Ulight-anti-cAMP (5 μL) reagents were added to each well, followed by centrifugation for 1 minute, agitation for 2 minutes at room temperature, and final incubation of the plates at 25° C. for 15 minutes. Plates were read using an EnVision microplate reader (excitation=320 nm; emission=615 and 655 nm). Dose-response curves were generated from duplicate wells based on percent activation calculated relative to a control GLP-1 peptide agonist that was run in parallel. EC50 values were determined by fitting percent activation as a function of compound concentration using the Hill equation (XLfit).
Stable cell lines expressing high and low GLP-1R surface expression were generated in CHO-K1 cells transfected (Fugene 6) with a puromycin selectable DNA plasmid encoding human GLP-1R receptor (accession number: NM_002062.5) under control of an EF1A promoter. Transfected cells were seeded into 24-well plates (9,000 cells/well) containing complete medium and incubated in a humidified incubator at 37° C. with 5% carbon dioxide. After overnight incubation, medium was replaced with complete medium supplemented with puromycin (6 μg/mL) and refreshed every 2-3 days to select for stably transfected cells. Individual pools of selected cells were expanded prior to analysis for responsiveness to GLP-1 control peptide using a TR-FRET assay to detect cAMP (LANCE Ultra CAMP Assay, Perkin Elmer).

[2] = rat, intravenous administration

SMILES | AUC(0-t) [1] [ng·h/mL] | Cmax [1] [ng/mL] | clearance [1] [mL/min/kg] | half-life [1] [h] | EC50 (human GLP-1R receptor) [nM] | longer t1/2 as compared with Reference Compound A [1, 2] [fold] | lower clearance as compared with Reference Compound A [1, 2] [%]
N#Cc1ccc(COc2cccc(C3CCN(Cc4nc5ccc(C(=O)O)cc5n4C[C@@H]4CCO4)CC3)n2)c(F)c1 [Reference Compound A, reference compound] | 325 ± 16.8 | 486 ± 37.9 | 51.2 ± 2.59 | 0.613 ± 0.344 |  |  | 
CC1(c2ccc(C#N)cc2F)Oc2cccc(C3CCN(Cc4nc5ccc(C(=O)O)cc5n4Cc4cncs4)CC3)c2O1 (stereo not drawn) [Compound 31] |  |  |  |  | 0.6 |  | 
N#Cc1ccc(COc2ccnc(C3CCN(Cc4nc5ccc(C(=O)O)cc5n4Cc4cncs4)CC3)n2)c(F)c1 [Compound 20] |  |  |  |  | 9.4 |  | 
N#Cc1ccc(COc2cccc(N3CCN(Cc4nc5ccc(C(=O)O)cc5n4Cc4cncs4)CC3)n2)c(F)c1 [Compound 30] |  |  |  |  | 1.7 |  | 
Cc1ncsc1Cn1c(CN2CCC(c3cccc(OCc4ccc(C#N)cc4F)n3)CC2)nc2ccc(C(=O)O)cc21 [Compound 4] |  |  |  |  | 2.5 |  | 
N#Cc1ccc(COc2cccc(C3CCN(Cc4nc5ccc(C(=O)O)cc5n4Cc4cncs4)CC3)n2)c(F)c1 [Compound 2] | 427 ± 27.7 | 596 ± 42.3 | 38.8 ± 2.55 | 1.57 ± 0.583 | 3.1 | ~2 | 30

From patent US12522596B2, “Compounds as GLP-1R agonists” (Terns Pharmaceuticals, Inc., priority 2021, dated 2026)
